# Measured values as given in PubChem BioAssay AID1259407 (Chemical Carcinogenesis Research Information System (CCRIS), 2018).
# Active and inactive are the calls of the source. The rule behind the calls is not given here.
# Test system: CCRIS mutagenicity, Ames/micronucleus/aberration tests
# Assay: CCRIS mutagenicity studies
# [1] = Test System: AMES SALMONELLA TYPHIMURIUM, Strain/Indicator: TA98, Metabolic Activation: NONE, Method: PREINCUBATION
# [2] = Test System: AMES SALMONELLA TYPHIMURIUM, Strain/Indicator: TA100, Metabolic Activation: NONE, Method: PREINCUBATION
# [3] = Test System: AMES SALMONELLA TYPHIMURIUM, Strain/Indicator: TA98, Metabolic Activation: NONE, Method: STANDARD PLATE
# [4] = Test System: AMES SALMONELLA TYPHIMURIUM, Strain/Indicator: TA100, Metabolic Activation: NONE, Method: STANDARD PLATE
# [5] = Test System: AMES SALMONELLA TYPHIMURIUM, Strain/Indicator: TA100, Metabolic Activation: RAT, LIVER, S-9, AROCLOR 1254, Method: STANDARD PLATE
smiles,measurement,setting,value
C[C@H]1C[C@@]23CCC4C[C@](C)(C(=O)O)CC[C@@]4(C)[C@@H]2CC[C@]1(O)C3 (stereo not given in full),mutagenic call,"Test System: AMES SALMONELLA TYPHIMURIUM, Strain/Indicator: TM677, Metabolic Activation: RAT, LIVER, S-9, AROCLOR 1254, Method: PREINCUBATION",inactive; negative
CC(=O)ON(C(C)=O)c1ccc(/C=C/c2ccccc2)cc1,mutagenic call,"Test System: CHINESE HAMSTER V-79, Strain/Indicator: V-79/6-THIOGUANINE, Metabolic Activation: NONE, Method: STANDARD PLATE",active; positive
O=S(=O)(O)c1ccc(N=Nc2c(O)c(S(=O)(=O)O)cc3cc(S(=O)(=O)O)ccc23)cc1,mutagenic call,[1],inactive; negative
same,mutagenic call,"Test System: AMES SALMONELLA TYPHIMURIUM, Strain/Indicator: TA98, Metabolic Activation: RAT, LIVER, S-9, PHENOBARBITAL, Method: PREINCUBATION",inactive; negative
same,mutagenic call,[2],inactive; negative
same,mutagenic call,"Test System: AMES SALMONELLA TYPHIMURIUM, Strain/Indicator: TA100, Metabolic Activation: RAT, LIVER, S-9, PHENOBARBITAL, Method: PREINCUBATION",inactive; negative
Nc1c(S(=O)(=O)O)cc2cc(S(=O)(=O)O)ccc2c1N=Nc1ccc(-c2ccc(N=Nc3c(N)c(S(=O)(=O)O)cc4cc(S(=O)(=O)O)ccc34)c(Cl)c2)cc1Cl,mutagenic call,"Test System: AMES SALMONELLA TYPHIMURIUM, Strain/Indicator: TA1538, Metabolic Activation: HAMSTER, LIVER, S-9, Method: STANDARD PLATE",inactive; negative
same,mutagenic call,"Test System: AMES SALMONELLA TYPHIMURIUM, Strain/Indicator: TA1538, Metabolic Activation: RAT, LIVER, S-9, AROCLOR 1254, Method: STANDARD PLATE",inactive; negative
c1ccc2c(c1)C1OOC2c2ccccc21,mutagenic call,[3],inactive; negative
same,mutagenic call,[4],inactive; negative
same,mutagenic call,[5],inactive; negative
O=C(O)/C=C/c1ccc([N+](=O)[O-])cc1,mutagenic call,"Test System: AMES SALMONELLA TYPHIMURIUM, Strain/Indicator: TA98(1,8-DNP6), Metabolic Activation: NONE, Method: PREINCUBATION",active; positive
same,mutagenic call,"Test System: AMES SALMONELLA TYPHIMURIUM, Strain/Indicator: TA98(1,8-DNP6), Metabolic Activation: RAT, LIVER, S-9, AROCLOR 1254, Method: PREINCUBATION",active; positive
same,mutagenic call,"Test System: AMES SALMONELLA TYPHIMURIUM, Strain/Indicator: TA98(NR), Metabolic Activation: NONE, Method: PREINCUBATION",active; positive
same,mutagenic call,"Test System: AMES SALMONELLA TYPHIMURIUM, Strain/Indicator: TA98(NR), Metabolic Activation: RAT, LIVER, S-9, AROCLOR 1254, Method: PREINCUBATION",active; positive
same,mutagenic call,[1],active; positive
same,mutagenic call,[3],active; positive
same,mutagenic call,"Test System: AMES SALMONELLA TYPHIMURIUM, Strain/Indicator: TA98, Metabolic Activation: RAT, LIVER, S-9, AROCLOR 1254, Method: PREINCUBATION",active; positive
same,mutagenic call,"Test System: AMES SALMONELLA TYPHIMURIUM, Strain/Indicator: TA98, Metabolic Activation: RAT, LIVER, S-9, AROCLOR 1254, Method: STANDARD PLATE",active; positive
same,mutagenic call,"Test System: AMES SALMONELLA TYPHIMURIUM, Strain/Indicator: TA100(1,8-DNP6), Metabolic Activation: NONE, Method: PREINCUBATION",active; positive
same,mutagenic call,"Test System: AMES SALMONELLA TYPHIMURIUM, Strain/Indicator: TA100(1,8-DNP6), Metabolic Activation: RAT, LIVER, S-9, AROCLOR 1254, Method: PREINCUBATION",active; positive
same,mutagenic call,"Test System: AMES SALMONELLA TYPHIMURIUM, Strain/Indicator: TA100(NR), Metabolic Activation: NONE, Method: PREINCUBATION",active; positive
same,mutagenic call,"Test System: AMES SALMONELLA TYPHIMURIUM, Strain/Indicator: TA100(NR), Metabolic Activation: RAT, LIVER, S-9, AROCLOR 1254, Method: PREINCUBATION",active; positive
same,mutagenic call,[2],active; positive
same,mutagenic call,[4],active; positive
same,mutagenic call,"Test System: AMES SALMONELLA TYPHIMURIUM, Strain/Indicator: TA100, Metabolic Activation: RAT, LIVER, S-9, AROCLOR 1254, Method: PREINCUBATION",active; positive
same,mutagenic call,[5],active; positive
same,mutagenic call,"Test System: AMES SALMONELLA TYPHIMURIUM, Strain/Indicator: TA1535, Metabolic Activation: NONE, Method: PREINCUBATION",active; positive
same,mutagenic call,"Test System: AMES SALMONELLA TYPHIMURIUM, Strain/Indicator: TA1537, Metabolic Activation: NONE, Method: PREINCUBATION",active; positive
same,mutagenic call,"Test System: AMES SALMONELLA TYPHIMURIUM, Strain/Indicator: TA1538, Metabolic Activation: NONE, Method: PREINCUBATION",active; positive
